From patent US8173685B2, “Pleuromutilin derivatives and their use as antimicrobials” (Nabriva Therapeutics AG, priority 2007, dated 2012)
Converted amounts (≈) assume the structure as drawn. Where two headings read alike, the source gives them in different places.

Key:
Assay type in all cases: cell-based
[1] = test system: Staphylococcus aureus (MSSA) ATCC10390 (strain B6); assay: MIC determination according to CLSI, Staphylococcus aureus (MSSA) ATCC10390
Source text: (§1) For example, the compounds of the present invention show antimicrobial, e.g. antibacterial, activity against gram positive bacteria, such as coagulase-positive and coagulase-negative Staphylococci, e.g. Staphylococcus aureus, Styphylococcus epidermis, Staphylococcus haemolyticus, Streptococci, e.g. Streptococcus pyogenes, Streptococcus pneumoniae, Streptococcus agalacticae, Enterococci, e.g. Enterococcus faecium and Moraxellaceae, e.g. Moraxella catarrhalis, Pasteurellaceae, e.g. Haemophilus influenzae, as well as against Mycoplasmactaceae, Chlamydiaceae, e.g. Chlamydia trachomatis, Chlamydia pneumoniae and obligatory anaerobes, e.g. Bacteroides fragilis, Clostridium difficile; in vitro in the Agar Dilution Test or Microdilution Test according to the Climical and Laboratory Standards Institute (CLSI, former National Committee for Clinical Laboratory Standards (NCCLS) 2006, Document M7-A7 Vol. 26, No. 2: “Methods for dilution Antimicrobial Susceptibility Tests for Bacteria that Grow Aerobically—Seventh Edition, Approved Standard”; and in the in vitro determination of the antibacterial activity against anaerobic bacteria according to National Committee for Clinical Laboratory Standards (NCCLS) VOL. 24, No. 2, M11-A5, Methods for Antimicrobal Susceptibility Testing of Anaerobic Bacteria; Approved Standard; Sixth Edition (2004) and in vivo in the septicaemic mouse model against Staphylococcus aureus.
(§2) The antibacterial activity expressed as minimal inhibitory concentration (MIC) was determined according to the approved standard reference recommendations of CLSI (former NCCLS).

[2] = test system: Staphylococcus aureus (MSSA) ATCC29213 (strain B7); assay: MIC determination according to CLSI, Staphylococcus aureus (MSSA) ATCC29213
Source text: as §1, §2

[3] = test system: Enterococcus faecalis ATCC29212 (strain B4); assay: MIC determination according to CLSI, Enterococcus faecalis ATCC29212
Source text: as §1, §2

[4] = test system: Enterococcus faecalis ATCC51299 (strain B5); assay: MIC determination according to CLSI, Enterococcus faecalis ATCC51299
Source text: as §1, §2

[5] = test system: Moraxella catarrhalis ATCC43618 (strain B407); assay: MIC determination according to CLSI, Moraxella catarrhalis ATCC43618
Source text: as §1, §2

[6] = test system: Escherichia coli ATCC25922 (strain B1); assay: MIC determination according to CLSI, Escherichia coli ATCC25922
Source text: as §1, §2

[7] = test system: Streptococcus pneumoniae ATCC49619 (strain B11); assay: MIC determination according to CLSI, Streptococcus pneumoniae ATCC49619
Source text: as §1, §2

[8] = test system: Staphylococcus aureus, Enterococcus faecalis, Streptococcus pneumoniae, Moraxella catarrhalis and Escherichia coli; assay: Antibacterial activity (MIC) against the panel of clinical relevant bacterial pathogens
Method: as §2

[9] = Staphylococcus aureus (MSSA), ATCC10390, strain B6, read-out: MIC
[10] = Staphylococcus aureus (MSSA), ATCC29213, strain B7, read-out: MIC
[11] = ATCC29212, strain B4, read-out: MIC
[12] = ATCC51299, strain B5, read-out: MIC
[13] = ATCC43618, strain B407, read-out: MIC
[14] = ATCC25922, strain B1, read-out: MIC
[15] = ATCC49619, strain B11, read-out: MIC

SMILES | MIC ([1]; Staphylococcus aureus) | MIC ([2]; Staphylococcus aureus) | MIC ([3]; ATCC29212) | MIC ([4]; ATCC51299) | MIC ([5]; ATCC43618) | MIC ([6]; ATCC25922) | MIC ([7]; ATCC49619) | MIC [1, 9] | MIC [2, 10] | MIC [3, 11] | MIC [4, 12] | MIC [5, 13] | MIC [6, 14] | MIC [7, 15] | factor by which MICs are lower than the MICs of examples 39-41 ([8]; against at least one of the strains shown in Table 1) | activity against the clinical relevant bacterial pathogens (in words) ([8]; in vitro, S. aureus, E. faecalis, S. pneumoniae, M. catarrhalis, E. coli)
C=C[C@]1(C)C[C@@H](OC(=O)COc2cccc(C)c2)[C@]2(C)[C@H](C)CC[C@]3(CCC(=O)[C@H]32)[C@@H](C)[C@@H]1O [Example 40, 14-O-[(3-Methyl-phenoxy)-acetyl]-mutilin] | 0.05 µg/mL (≈ 0.107 µM) | 0.05 µg/mL (≈ 0.107 µM) | > 6.4 µg/mL | > 6.4 µg/mL | 0.0125 µg/mL (≈ 0.0267 µM) | > 6.4 µg/mL | 0.64 µg/mL (≈ 1.37 µM) | – | – | – | – | – | – | – | – | –
C=C[C@]1(C)C[C@@H](OC(=O)CSc2cccc(CNC(=O)[C@H]3CCCCN3)c2)[C@]2(C)C(C)CCC3(CCC(=O)C32)[C@@H](C)[C@@H]1O (stereo partly drawn) [Example 1, 14-O-[(3-{[((R)-Piperidine-2-carbonyl)-amino]-methyl}-phenylsulfanyl)-acetyl]-mutilin] | – | – | – | – | – | – | – | ≤ 0.0125 µg/mL | ≤ 0.0125 µg/mL | 1.6 µg/mL (≈ 2.62 µM) | 1.6 µg/mL (≈ 2.62 µM) | 0.0125 µg/mL (≈ 0.0205 µM) | 12.8 µg/mL (≈ 21 µM) | ≤ 0.0025 µg/mL | ≥ 2 | very good activity
C=C[C@]1(C)C[C@@H](OC(=O)CSc2cccc(C)c2)[C@]2(C)C(C)CCC3(CCC(=O)C32)[C@@H](C)[C@@H]1O (stereo partly drawn) [Example 39, 14-O-[(3-Methyl-phenylsulfanyl)-acetyl]-mutilin] | – | – | – | – | – | – | – | 0.025 µg/mL (≈ 0.0516 µM) | 0.05 µg/mL (≈ 0.103 µM) | > 6.4 µg/mL | > 6.4 µg/mL | 0.0125 µg/mL (≈ 0.0258 µM) | > 6.4 µg/mL | 0.16 µg/mL (≈ 0.33 µM) | – | –
CC[C@]1(C)C[C@@H](OC(=O)COc2cccc(C)c2)[C@]2(C)C(C)CCC3(CCC(=O)C32)[C@@H](C)[C@@H]1O (stereo partly drawn) [Example 41, 14-O-[(3-Methyl-phenoxy)-acetyl]-19,20-dihydromutilin] | 0.05 µg/mL (≈ 0.106 µM) | 0.1 µg/mL (≈ 0.212 µM) | > 6.4 µg/mL | > 6.4 µg/mL | 0.025 µg/mL (≈ 0.0531 µM) | > 6.4 µg/mL | > 0.64 µg/mL | – | – | – | – | – | – | – | – | –
